From publication doi:10.1101/2022.09.20.508773v1 (biorxiv, 2022)

Target: T1, NΔ47-TPH2-R (Homo sapiens, UniProt Q8IWU9)
T1 sequence (Q8IWU9 48-145): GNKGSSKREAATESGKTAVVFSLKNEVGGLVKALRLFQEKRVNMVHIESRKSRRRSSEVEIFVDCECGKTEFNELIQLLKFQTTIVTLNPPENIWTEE
Experiment: protein-observed NMR titration, 1H-15N HSQC, 2D line-shape analysis
Type: binding

- Kd: 40.8 ± 0.8 µM
SMILES: N[C@@H](Cc1ccccc1)C(=O)O [L-Phe]
